{"source": "patent US5873359A", "about": "“Methods and devices for treating pulmonary vasoconstriction and asthma” (The General Hospital Corporation, priority 1994, dated 1999)", "key": {"[1]": {"test_system": "heparin-protamine-induced elevated PAP and PVR", "format": "in vivo, sheep", "method": "The heparin-protamine reaction was induced in these nine sheep by first administering heparin (200 U/kg; Elkins-Sinn, Cherry Hill, N.J.) followed five minutes later (at time zero) by protamine (2 mg/kg; Elkins-Sinn). Each of these sheep also served as a control. Six additional sheep were given an intravenous infusion of sodium nitroprusside (40 μg/kg/min body weight; Elkins-Sinn) while breathing air (data not shown)."}, "[2]": {"test_system": "methacholine bronchoconstriction", "experiment": "Tolerance to 1 hour of NO inhalation during methacholine infusion", "format": "in vivo, Hartley strain guinea pigs", "method": "Male Hartley strain guinea pigs (300-440g body wt) were anesthetized with α-chloralose (50 mg/kg) and urethane (500 mg/kg) (Drazen et al., J. Appl. Physiol. 48:613-618, 1980). A tracheostomy was performed, and the animals were intubated with a tubing adaptor (ID 1.65 mm) and ventilated with a small animal ventilator (Harvard Apparatus, a division of Ealing Scientific, Natick, Mass.) at 8 ml/kg and 60 breaths/min. A jugular vein was cannulated for intravenous administration of drugs. The chest was opened by bilateral excision of a portion of the ribs anteriorly so that the lungs were exposed to atmospheric pressure (Shore and Drazen, J. Appl. Physiol. 67:2504-2511, 1989). A positive end expiratory pressure of 3-4 cmH2 O was provided.\nGuinea pigs were then placed inside a plethysmograph (Amdur and Mead, Am. J. Physiol. 192:363-368, 1958), that was connected to a large reservoir containing copper mesh to maintain the plethysmograph isothermal. Plethysmograph pressure was measured with a differential pressure transducer (Celesco, Canoga Park, Calif.); the opposite side of this transducer was connected to a similar reservoir. Pressure at the airway opening was measured from a side tap in the tracheal canula. Transpulmonary pressure was measured with a differential pressure transducer (Celesco) as the difference between airway opening pressure and the pressure inside the plethysmograph. […] Tidal volume was measured by recording the pressure changes in the body plethysmograph. Volume, flow, and transpulmonary pressure signals were recorded on a strip chart (General Scanning, Watertown, Mass.). Pulmonary resistance and dynamic compliance were calculated by a computer program according to the method of von Neergard and Wirz (Z. Klin. Med. 105:35-50, 1927; Z. Klin. Med. 105:52-82, 1927).\nThe apparatus and conditions used are diagrammed in FIG. 7. […] With volumetrically calibrated flowmeters, varying quantities of NO mixed with N2 were substituted for pure N2 to obtain the desired No concentration at an inspired oxygen concentration (FIO2) of 0.30-0.32. […]"}, "[3]": {"test_system": "acute hypoxic pulmonary hypertension", "experiment": "Inhaled NO in lambs with pulmonary vasoconstriction induced by hypoxia", "format": "in vivo", "method": "Five awake lambs were studied during a period of breathing a hypoxic gas mixture to induce acute hypoxic pulmonary hypertension. Three lambs were excluded due to sepsis and heart failure. Hemodynamic monitoring techniques similar to those described above were used. We employed a non-rebreathing circuit containing a 25 liter reservoir bag and the Fi O2 was reduced to 0.06-0.08 to produce a mean PAP near 25 mm Hg at a Pa O2 near 30 mm Hg. Either 40 or 80 ppm NO was then added to the inspired gas mixture. Total gas flows were maintained at 35 l/min to prevent rebreathing due to hyperventilation. The inspired Fi O2 was monitored with n electrode (model 5590, Hudson Co., Temecala, Calif.) and pure CO2 was added to the inspired gas to maintain the end tidal CO2 concentration at 4.5-6%. Measurements of central hemodynamics and gas exchange were obtained at baseline, during hypoxia, and at 3 and 6 minutes of No breathing during hypoxia. Comparisons were performed using paired t-tests."}, "[4]": {"test_system": "severe acute respiratory failure", "experiment": "Inhaled NO in humans with severe acute respiratory failure (preliminary)", "format": "in vivo, human", "settings": "approximately 20 ppm inhaled, up to one month, five humans", "text": "It is likely that inhaled NO acts by diffusing into the vascular space adjacent to the alveoli and causing relaxation of pulmonary vascular smooth muscle, thus permitting an increase in pulmonary blood flow and gas exchange. […] By localizing delivery of NO in a gaseous form directly to the lungs, the dissolved NO can immediately exert its pharmacological effect on target vascular smooth muscle, prior to inactivation of the NO by binding to hemoglobin. At the same time, the rapid binding of NO to hemoglobin ensures that any vasodilatory action of inhaled NO is solely a local or selective effect in the blood vessels of the lung, with no concomitant vasodilation downstream in the systemic circulation."}, "[5]": {"settings": "dilute aqueous solution exposed to oxygen; cited from earlier work"}, "[6]": {"settings": "hypoxia + 40-80 ppm NO, FiO2 0.06-0.08, n = 5, mean ± S.E."}, "[7]": {"settings": "hypoxia + 40-80 ppm NO, n = 5, mean ± S.E."}, "[8]": {"settings": "hypoxia + 40-80 ppm NO, n = 5, mean ± S.E., p < .01 vs hypoxia"}}}
{"smiles": "[N]=O", "note": "[NO, nitric oxide]", "values": [{"measurement": "systemic hypotension", "setting": "[1]; 180 ppm inhaled NO vs SNP", "result": "without the latter drug's propensity to cause marked systemic hypotension"}, {"measurement": "lowering of heparin-protamine-induced PAP", "setting": "[1]; 180 ppm inhaled NO vs SNP 40 μg/kg/min", "result": "comparable to 40 μg/kg/min SNP infusion"}, {"measurement": "prevention of elevated PAP and PVR", "setting": "[1]; 180 ppm inhaled NO, nine awake sheep", "result": "prevent the elevated PAP and PVR"}, {"measurement": "tolerance", "setting": "[2]; 100 ppm NO, one hour", "result": "no tolerance"}, {"measurement": "airway resistance", "setting": "[2]; 100 ppm NO, one hour (FIG. 13)", "result": "effectively and stably reduced the airway resistance for one hour"}, {"measurement": "methemoglobin levels", "setting": "[2]; after one hour of breathing 100 ppm NO", "result": "below 5%"}, {"measurement": "Pa O2 during hypoxia with vs without NO", "setting": "[3]; 40 or 80 ppm NO", "result": "similar"}, {"measurement": "Pv O2 during hypoxia with vs without NO", "setting": "[3]; 40 or 80 ppm NO", "result": "similar"}, {"measurement": "drop of mean PVR", "setting": "[3]; 40 or 80 ppm NO", "result": 33, "unit": "%"}, {"measurement": "pulmonary artery pressure", "setting": "[3]; 40 or 80 ppm NO", "result": "returned to control levels"}, {"measurement": "Pa CO2", "setting": "[3]; [6]", "result": "40.0 ± 2.7", "unit": "mm Hg"}, {"measurement": "PaO2", "setting": "[3]; [6]", "result": "31.1 ± 1.7", "unit": "mm Hg"}, {"measurement": "Pv O2", "setting": "[3]; [6]", "result": "19.8 ± 3.2", "unit": "mm Hg"}, {"measurement": "pHa", "setting": "[3]; [6]", "result": "7.40 ± 0.03"}, {"measurement": "CO", "setting": "[3]; [7]", "result": "7.56 ± 0.79", "unit": "L/min"}, {"measurement": "CVP", "setting": "[3]; [7]", "result": "2.8 ± 1.6", "unit": "mm Hg"}, {"measurement": "LAP", "setting": "[3]; [7]", "result": "4.2 ± 1.0", "unit": "mm Hg"}, {"measurement": "SVR", "setting": "[3]; [7]", "result": "13.7 ± 1.0", "unit": "mm Hg/l/min"}, {"measurement": "PAP", "setting": "[3]; [8]", "result": "18.7 ± 1.1", "unit": "mm Hg"}, {"measurement": "PVR", "setting": "[3]; [8]", "result": "2.01 ± 0.35", "unit": "mm Hg/l/min"}, {"measurement": "SAP", "setting": "[3]; [8]", "result": "106 ± 5", "unit": "mm Hg"}, {"measurement": "QVA /QT (right-to-left shunt)", "setting": "[4]", "result": "reduces both pulmonary arterial pressure and QVA /QT"}, {"measurement": "blood oxygen levels", "setting": "[4]", "result": "marked increase of the patients' blood oxygen levels"}, {"measurement": "pulmonary arterial pressure", "setting": "[4]", "result": "reduces both pulmonary arterial pressure and QVA /QT"}, {"measurement": "half life", "setting": "[5]", "result": "less than 10 seconds"}]}
